Like-named read-outs stand apart in the source and are kept apart here.
Experiments:
HeLa WT-β-III cells = test: Antiproliferative SRB assay, βIII-tubulin expressing HeLa; assay type: cell-based, human; conditions: for IC50: Table 49, βIII tubulin expressing line, 48 hr, SRB assay; for Rr (β-III): relative resistance: IC50 of expressing line divided by IC50 of parental HeLa
Description: (§1) Cell Culture. Various representative cancer and other cell lines were sourced and grown as described previously [Mooberry, S. L., et al., Mol. Pharm. 72, 132-140 (2007)]. MDA-MB-435 (human melanoma cancer cells), and MDA-MB-231 (human breast cancer cells) were grown in IMEM Richter's Medium (Life Technologies, Grand Island, N.Y.) with 10% FBS (Hyclone, Logan, Utah) and 25 μg/mL gentamicin sulfate (Life Technologies). A-10 (embryonic rat vascular smooth muscle cells) and HeLa (human cervical cancer cells), SK-OV-3 (human ovarian cancer cells) and SK-OV-3-MDR-1-M6/6 (a clone of the SK-OV-3 that was generated from SK-OV-3 cells by adenovirus-mediated expression of MDR1) were grown in Basal Medium Eagle (BME, Sigma-Aldrich, St. Louis, Mo.) containing Earle's salts, 50 μg/ml gentamicin sulfate, and 10% FBS. HeLa cells (a single-cell clone derived from transduction of HeLa cells with wild-type (WT) βIII-tubulin) were grown in Dulbecco's Modified Eagle's Medium (DMEM, Life Technologies) containing 50 μg/mL gentamicin sulfate and 10% FBS.
(§2) Antiproliferative Effects. The pyrrole compounds were evaluated for their antiproliferative effects in a panel of cancer cell lines. Cells were plated into 96-well plates at predetermined densities and allowed to attach and proliferate for 24 hr, and then the compounds were added. After a 48 hr exposure to the compounds, the cells were fixed with trichloroacetic acid and cellular protein was determined using the sulforhodamine B (SRB) assay (Skehan et al., J. Natl. Cancer Inst. 82, 1107-12, (1990); Boyd and Paull Drug Devel. Res. 34, 91-109, (1995)). Concentration response curves were constructed, and the IC50 (the concentration required to inhibit proliferation by 50%) values were determined from the linear portions of the log concentration-response curves as described previously [Tinley, T. L., et al., Cancer Res. 63, 3211-3220, (2003)] as shown in Table 48.
(§3) First, drug resistance mediated by the expression of βIII tubulin was evaluated in an isogenic HeLa cell line pair. Expression of the βIII tubulin isotype is associated with clinical drug resistance to the taxanes in ovarian cancer, non small-cell lung cancer and breast cancer [Galmarini, C. M., et al., Clin. Cancer Res. 14, 4511-4516 (2008)]. Secondly, drug resistance mediated by the expression of the drug efflux pump protein, Pgp, was evaluated in the isogenic SK-OV-3 cell line pair. The expression of Pgp can lead to lower intracellular drug concentrations and diminished cytotoxic effects both in vitro and in vivo. All tubulin-binding anticancer drugs used currently in the clinic, except cabazitaxel, are substrates for Pgp, thus limiting their utility in drug resistant tumors [Penson, R. T., et al., Gynecol. Oncol. 93, 98-106 (2004)]. Differences in sensitivity between the parent and transformed cell line, indicative of resistance, was determined by calculating relative resistance (Rr) values in the two pairs of isogenic cell lines (dividing the IC50 of the expressing cell line by the IC50 of the parental cell line).

A-10 cells = test: Cellular microtubule loss by indirect immunofluorescence; assay type: cell-based, rat; conditions: read-out: EC50 Values (nM) for Microtubule Loss in A-10 cells
Description: The effects of representative compounds on cellular microtubules were evaluated in A-10 (embryonic rat vascular smooth muscle cell line) cells using indirect immunofluorescence techniques as previously described (Tinley et al., Cancer Res. 63, 3211-20 (2003)). Cells were visualized using a Nikon Eclipse 80i fluorescence microscope and NIS Elements software. Changes in both interphase and mitotic microtubules were noted and photographed. The EC50 values, the concentration that causes approximately 50% loss of interphase microtubules was determined by evaluating a range of concentrations of each compound and the percent cellular microtubule depolymerization that was observed visually at each concentration was noted.
Microtubules were visualized by indirect immunofluorescence using a β-tubulin antibody, and the DNA was visualized with DAPI. A representative concentration response curve for NT-7-16 is also shown in FIG. 1 that was used to calculate its corresponding EC50 for microtubule loss. Concentration response curves for microtubule loss were plotted using data from at least three experiments for each compound and the corresponding EC50 values for microtubule loss are presented in Table 50.

[1] = test system: HeLa (human cervical cancer cells); test: Antiproliferative SRB assay, HeLa; assay type: cell-based
Description: as §1, §2, §3

[2] = molecular target: T1, purified porcine brain tubulin (Sus scrofa, UniProt P02554); test: Inhibition of polymerization of purified tubulin (absorbance at 340 nm); assay type: biochemical
T1 construct: of Purified Porcine Brain Tubulin; from tissue; host or cells: porcine brain
T1 sequence (P02554 whole entry): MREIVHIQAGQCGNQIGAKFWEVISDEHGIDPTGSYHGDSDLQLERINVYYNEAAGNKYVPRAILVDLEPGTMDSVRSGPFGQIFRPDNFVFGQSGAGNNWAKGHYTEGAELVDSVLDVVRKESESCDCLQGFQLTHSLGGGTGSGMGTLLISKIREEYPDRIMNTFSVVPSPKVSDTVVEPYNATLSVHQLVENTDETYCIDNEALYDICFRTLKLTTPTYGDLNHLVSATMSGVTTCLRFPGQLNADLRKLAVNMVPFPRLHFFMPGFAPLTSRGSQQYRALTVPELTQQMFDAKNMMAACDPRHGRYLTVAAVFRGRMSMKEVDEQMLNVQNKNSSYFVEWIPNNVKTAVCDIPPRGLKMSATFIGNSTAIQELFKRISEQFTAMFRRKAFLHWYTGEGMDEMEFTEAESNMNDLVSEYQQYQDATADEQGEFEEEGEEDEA
T1 sequence (P02550 whole entry partner): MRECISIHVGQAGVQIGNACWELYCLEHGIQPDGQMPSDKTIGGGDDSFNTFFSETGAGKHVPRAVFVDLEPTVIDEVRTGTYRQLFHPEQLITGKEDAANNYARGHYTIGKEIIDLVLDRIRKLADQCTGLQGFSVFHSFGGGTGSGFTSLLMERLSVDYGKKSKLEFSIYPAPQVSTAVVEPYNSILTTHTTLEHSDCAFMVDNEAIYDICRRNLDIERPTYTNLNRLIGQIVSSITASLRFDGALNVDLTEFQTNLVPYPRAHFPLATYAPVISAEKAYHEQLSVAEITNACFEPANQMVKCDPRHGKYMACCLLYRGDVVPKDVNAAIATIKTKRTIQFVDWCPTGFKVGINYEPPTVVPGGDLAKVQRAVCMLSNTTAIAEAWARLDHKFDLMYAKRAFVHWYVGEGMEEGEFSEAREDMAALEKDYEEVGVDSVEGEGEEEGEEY

SK-OV-3-MDR-1-6/6 cells = test: Antiproliferative SRB assay, Pgp expressing SK-OV-3; assay type: cell-based, human; conditions: for IC50: Table 49, Pgp expressing line, 48 hr, SRB assay; for Rr (Pgp): relative resistance: IC50 of expressing line divided by IC50 of parental SK-OV-3
Description: as §1, §2
as §3, with “The expression of Pgp can lead to lower intracellular drug concentrations and diminished cytotoxic effects both in vitro and in vivo.” left out

[3] = test system: SK-OV-3 (human ovarian cancer cells); test: Antiproliferative SRB assay, SK-OV-3; assay type: cell-based
Description: as §1, §2
as §3, with “The expression of Pgp can lead to lower intracellular drug concentrations and diminished cytotoxic effects both in vitro and in vivo.” left out

[4] = test system: MDA-MB-435 (human melanoma cancer cells); test: Antiproliferative SRB assay, MDA-MB-435; assay type: cell-based; conditions: read-out: MDA-MB-435 Anti-Proliferative Activity, IC50
Description: as §1, §2

[5] = test system: variety of cancer cell lines; conditions: against cancer cell lines; cited from earlier work
[6] = molecular target: colchicine binding site on tubulin (Sus scrofa, UniProt P02554); test: Colchicine site binding, fluorometric assay
Chain of colchicine binding site on tubulin (P02554 whole entry): as the sequence (P02554 whole entry) above
Chain of colchicine binding site on tubulin (P02550 whole entry partner): as the sequence (P02550 whole entry partner) above

[7] = Rattus norvegicus, A10, Table 50, concentration causing approximately 50% loss of interphase microtubules
[8] = Homo sapiens, HeLa, Table 48, 48 hr exposure, read-out: HeLa Anti-Proliferative Activity, IC50
[9] = Homo sapiens, HeLa, Table 49, parental line, 48 hr, read-out: HeLa IC50
[10] = Homo sapiens, SK-OV-3, Table 48, 48 hr exposure, read-out: SK-OV-3 Anti-Proliferative Activity, IC50
[11] = Homo sapiens, SK-OV-3, Table 49, parental line, 48 hr, read-out: SK-OV-3 IC50
[12] = Homo sapiens, MDA-MB-435, Table 48, 48 hr exposure, SRB assay
[13] = Homo sapiens, MDA-MB-435, Table 52

Compound | Rr (β-III) (HeLa WT-β-III cells) | Rr (Pgp) (SK-OV-3-MDR-1-6/6 cells) | IC50 (HeLa WT-β-III cells; Homo sapiens, HeLa) | EC50 (A-10 cells; [7]) | melting point | IC50 [1, 8] | IC50 [1, 9] | inhibition at 2 µM ([2]; compound at 2 μM) | IC50 (SK-OV-3-MDR-1-6/6 cells; Homo sapiens, SK-OV-3) | IC50 [3, 10] | IC50 [3, 11] | IC50 [4, 12] | IC50 [4, 13] | further results
CCOC(=O)c1[nH]c(C=NO)c(-c2ccc(OC)c(OC)c2OC)c1Br (mixture of isomers) [Example 10a, Cis/Trans-3-Bromo-4-(2,3,4-trimethoxyphenyl)-5-oximino-1H-pyrrole 2-carboxylic acid ethyl ester] | 0.9 | 1.2 | – | – | – | – | – | – | – | – | – | – | – | IC50 (HeLa WT-β-III cells): 4.1 ± 1 nM; EC50 (A-10 cells; Table 50, concentration causing approximately 50% loss of interphase microtubules): 9.8 nM; EC50 (A-10 cells; Table 52): 8.9 nM; IC50 ([1]; Table 48, 48 hr exposure, read-out: HeLa Anti-Proliferative Activity, IC50): 5 ± 0.3 nM; IC50 ([1]; Table 49, parental line, 48 hr, read-out: HeLa IC50): 5 ± 0.3 nM; % Inhibition of Tubulin Polymerization ([2]; compound at 2 μM): 75%; IC50 (SK-OV-3-MDR-1-6/6 cells): 6.6 ± 1.2 nM; IC50 ([3]; Table 48, 48 hr exposure, read-out: SK-OV-3 Anti-Proliferative Activity, IC50): 5.3 ± 0.2 nM; IC50 ([3]; Table 49, parental line, 48 hr, read-out: SK-OV-3 IC50): 5.3 ± 0.2 nM; IC50 ([4]; Table 48, 48 hr exposure, SRB assay): 2.7 ± 0.2 nM; IC50 ([4]; Table 52): 2.7 ± 0.2 nM
CCOC(=O)c1[nH]c(C=NOC)c(-c2ccc(OC)c(OC)c2OC)c1Br (mixture of isomers) [Example 12, Cis/Trans-3-Bromo-4-(2,3,4-trimethoxyphenyl)-5-(O-methyl-oximino)-1H-pyrrole-2-carboxylic acid ethyl ester] | 1.1 | 1.3 | 12.5 ± 0.2 nM | 22 nM | 125 to 128 °C | 11.9 ± 1.3 nM | 11.9 ± 1.3 nM | 99% | 17.5 ± 1.2 nM | 13.8 ± 0.9 nM | 13.8 ± 0.9 nM | 7.6 ± 0.5 nM | 7.6 ± 0.5 nM | –
CCOC(=O)c1[nH]c(Br)c(-c2cc(OC)c(OC)c(OC)c2)c1Br [4-[(3,4,5-trimethoxy)-phenyl]-3,5-dibromopyrrole 2-carboxylic acid ethyl ester] | – | – | – | – | – | – | – | – | – | – | – | – | – | fold less active than JG-03-14 in vitro [5]: more than 350 fold
CCOC(=O)c1[nH]c(C=O)c(-c2ccc(OC)c(OC)c2OC)c1Br [Example 2, 3-Bromo-4-(2,3,4-trimethoxyphenyl)-5-formyl-1H-pyrrole 2-carboxylic acid ethyl ester] | 3.3 | 1.1 | 104 ± 6.5 nM | 66 nM | 158 to 160 °C | 31.7 ± 4.8 nM | 31.7 ± 4.8 nM | 68% | 82.2 ± 9.4 nM | 72 ± 9.1 nM | 72 ± 9.1 nM | 57 ± 5 nM | 57 ± 5 nM | –
CCOC(=O)c1[nH]c(C(F)F)c(-c2ccc(OC)c(OC)c2OC)c1Br [Example 6, 3-Bromo-4-(2,3,4-trimethoxyphenyl)-5-(difluoromethinyl)-1H-pyrrole 2-carboxylic acid ethyl ester] | 1.3 | 0.8 | 184 ± 30.3 nM | 315 nM | 149 to 151 °C | 142 ± 11 nM | 142 ± 11 nM | 55% | 174 ± 12.5 nM | 227 ± 14 nM | 227 ± 14 nM | 113 ± 6 nM | 113 ± 6 nM | –
CCOC(=O)c1[nH]c(C#N)c(-c2ccc(OC)c(OC)c2OC)c1Br [Example 11, 3-Bromo-4-(2,3,4-trimethoxyphenyl)-5-cyano-1H-pyrrole 2-carboxylic acid ethyl ester] | 1.3 | 1.6 | 26.1 ± 0.8 nM | 88.1 nM | 173 to 176 °C | 20.6 ± 1.9 nM | 20.6 ± 1.9 nM | 78% | 42.2 ± 5.5 nM | 26.2 ± 2.1 nM | 26.2 ± 2.1 nM | 19.6 ± 1.8 nM | 19.6 ± 1.8 nM | –
CCOC(=O)c1[nH]c(Br)c(-c2ccc(OC)c(OC)c2OC)c1Br [Example 22, 3,5-Dibromo-4-(2,3,4-trimethoxyphenyl)-1H-pyrrole-2-carboxylic acid ethyl ester] | 1.2 | 0.7 | 15.7 ± 0.2 nM | 34.5 nM | – | 12.9 ± 0.8 nM | 12.9 ± 0.8 nM | – | 10.6 ± 0.3 nM | 15.2 ± 0.8 nM | 15.2 ± 0.8 nM | 10.4 ± 0.5 nM | – | inhibition at 1 µM ([2]; compound at 1 μM): 53%
CC[C@]1(O)C[C@@H]2CN(CCc3c([nH]c4ccccc34)[C@@](C(=O)OC)(c3cc4c(cc3OC)N(C)[C@H]3[C@@](O)(C(=O)OC)[C@H](OC(C)=O)[C@]5(CC)C=CCN6CC[C@]43[C@@H]65)C2)C1 [vinblastine, reference compound] | – | – | – | – | – | – | – | – | – | – | – | – | – | effect on colchicine binding ([6]; at 100 μM): no effect; effect on colchicine binding (FIG. 9) ([6]; result in words): does not
